Active and inactive are the calls of the source. The rule behind the calls is not given here.
Key:
Enterococcus [1] = assay: Potency index, ratio of Vancomycin MIC to test compound MIC for antibacterial activity against Vancomycin-resistant Enterococci NR30909; type: functional, NR 30909
[2] = Renal toxicity in mouse assessed as plasma creatinine level at 12 mg/kg, ip measured after 48 hrs; type: organism-based; conditions: in vivo
Staphylococcus aureus [3] = assay: Bactericidal activity against methicillin-resistant Staphylococcus aureus ATCC 33591 assessed as log reduction in bacterial colonies at 2XMIC incubated for 24 hrs in broth solution followed by culturing for 24 hrs on agar plate by spot plating method; type: functional; conditions: time 48 hrs
Staphylococcus aureus [4] = assay: Antibacterial activity against Vancomycin-resistant Staphylococcus aureus 4 assessed as inhibition of bacterial growth incubated for 18 to 24 hrs by CLSI microbroth dilution method; type: functional; conditions: time 18-24 hrs
Staphylococcus aureus [5] = assay: Antibacterial activity against stationary phase of Methicillin-resistant Staphylococcus aureus ATCC 33591 assessed as log reduction in bacterial colonies at 4.5 uM incubated for 24 hrs in broth solution followed by incubation on agar plate for 48 hrs by spot plating method; type: functional; conditions: time 72 hrs
[6] = Hepatotoxicity in mouse assessed as plasma ALT level at 12 mg/kg, ip measured after 48 hrs; type: toxicity, organism-based; conditions: in vivo
Staphylococcus aureus [7] = assay: Antibacterial activity against Methicillin-resistant Staphylococcus aureus ATCC 33591 persister cells assessed as log reduction in bacterial colonies at 4.5 uM incubated for 12 hrs in broth solution followed by incubation on agar plate for 48 hrs by spot plating method; type: functional; conditions: time 60 hrs
Staphylococcus aureus [8] = assay: Antibacterial activity against Methicillin-resistant Staphylococcus aureus ATCC 33591 assessed as inhibition of bacterial growth incubated for 18 to 24 hrs in presence of 50% human liver homogenate by CLSI microbroth dilution method; type: functional; conditions: ATCC 33591, Liver, time 18-24 hrs
Staphylococcus aureus [9] = assay: Antibacterial activity against Methicillin-resistant Staphylococcus aureus ATCC 33591 persister cells assessed as log reduction in bacterial colonies at 4.5 uM incubated for 24 hrs in broth solution followed by incubation on agar plate for 48 hrs by spot plating method; type: functional; conditions: time 72 hrs
Enterococcus [10] = assay: Bactericidal activity against Vancomycin-resistant Enterococci assessed as reduction in bacterial colonies at MIC to 2XMIC incubated for 6 hrs in broth solution followed by culturing for 24 hrs on agar plate by spot plating method; type: functional, organism-based; conditions: time 30.0 hrs
Staphylococcus aureus [11] = assay: Bactericidal activity against methicillin-resistant Staphylococcus aureus ATCC 33591 assessed as eradication of viable bacterial cells at 4XMIC incubated for 6 hrs in broth solution followed by culturing for 24 hrs on agar plate by spot plating method; type: functional; conditions: time 30 hrs
Cell membrane [12] = assay: Induction of cytoplasmic membrane depolarization in Methicillin-resistant Staphylococcus aureus ATCC 33591 assessed as increase in fluorescence intensity at 10 uM measured for 35 to 40 mins by DiSC3(5) dye based fluorescence analysis; type: subcellular; conditions: time 35-40 min
[13] = Induction of hemolysis in human erythrocytes incubated for 1 hr by microtiter plater reader analysis; type: toxicity, cell-based, Erythrocyte
Cell membrane [14] = assay: Induction of cytoplasmic membrane permeabilization in Vancomycin-resistant Enterococci assessed as increase in fluorescence intensity at 10 uM measured for 30 to 40 mins by Propidium iodide staining based fluorescence analysis; type: subcellular; conditions: Enterococcus, time 30-40 min
Cell membrane [15] = assay: Induction of Cytoplasmic membrane disruption in Bacillus subtilis 168 assessed as proportion of PI-stained cells at PEC incubated for 10 mins by SYTO9/PI staining based fluorescence microscopy; type: subcellular
[16] = Induction of hemolysis in human erythrocytes at 250 uM incubated for 1 hr by microtiter plater reader analysis; type: toxicity, cell-based, Erythrocyte; conditions: read-out: Activity
[17] = Toxicity in BALB/c mouse assessed as adverse effects at 55.5 mg/kg, ip measured for 4 hrs; type: organism-based; conditions: in vivo
Staphylococcus aureus [18] = assay: Antibacterial activity against Methicillin-resistant Staphylococcus aureus ATCC 33591 persister cells assessed as log reduction in bacterial colonies at 9 uM incubated for 2 hrs in broth solution followed by incubation on agar plate for 48 hrs by spot plating method; type: functional; conditions: time 50 hrs
Bacillus subtilis [19] = assay: Inhibition of cell wall biosynthesis in Bacillus subtilis 168 assessed as bubble-like formation on bacterial cell surface at PEC incubated for 15 mins by light microscopic analysis; type: functional, organism-based
Bacillus subtilis [20] = assay: Antibacterial activity against Bacillus subtilis 168 assessed as inhibition of bacterial growth incubated for 18 hrs by turbidity based analysis; type: functional
Enterococcus [21] = assay: Antibacterial activity against Vancomycin-resistant Enterococci NR30903 assessed as inhibition of bacterial growth incubated for 18 to 24 hrs by CLSI microbroth dilution method; type: functional; conditions: time 18-24 hrs
Staphylococcus aureus [22] = assay: Antibacterial activity against Methicillin-resistant Staphylococcus aureus ATCC 33591 assessed as inhibition of bacterial growth preincubated compound with teichoic-acid for 1 hr followed by incubation with bacterial culture for 18 to 24 hrs by CLSI microbroth dilution method; type: functional; conditions: time 19-25 hrs
[23] = Toxicity in BALB/c mouse assessed as adverse effects at 55.5 mg/kg, iv measured for 4 hrs; type: organism-based; conditions: in vivo
[24] = biological target: T1, Septum site-determining protein MinD (Bacillus subtilis (strain 168)) (UniProt Q01464); assay: Delocalization of GFP tagged-MinD in Bacillus subtilis 168 at MIC incubated for 15 mins by fluorescence microscopy
T1 sequence (whole entry): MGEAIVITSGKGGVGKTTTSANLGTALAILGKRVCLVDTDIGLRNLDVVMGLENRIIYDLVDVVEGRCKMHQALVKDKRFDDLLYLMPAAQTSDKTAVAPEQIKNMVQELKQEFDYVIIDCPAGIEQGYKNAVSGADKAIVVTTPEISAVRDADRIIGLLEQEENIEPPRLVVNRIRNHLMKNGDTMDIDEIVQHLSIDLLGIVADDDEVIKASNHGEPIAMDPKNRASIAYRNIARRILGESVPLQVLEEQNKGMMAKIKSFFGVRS

Enterococcus [25] = assay: Potency index, ratio of Vancomycin MIC to test compound MIC for antibacterial activity against Vancomycin-resistant Enterococci NR30903; type: functional, NR 30903
Staphylococcus aureus [26] = assay: Antibacterial activity against stationary phase of Methicillin-resistant Staphylococcus aureus ATCC 33591 assessed as log reduction in bacterial colonies at 9 uM incubated for 12 hrs in broth solution followed by incubation on agar plate for 48 hrs by spot plating method; type: functional; conditions: time 60 hrs
Enterococcus [27] = assay: Bactericidal activity against Vancomycin-resistant Enterococci assessed as log reduction in bacterial colonies at 4XMIC incubated for 6 hrs in broth solution followed by culturing for 24 hrs on agar plate by spot plating method; type: functional; conditions: time 30 hrs
[28] = Cytotoxicity against human HEK293 cells assessed as cell viability at 0.5 to 30 uM incubated for 24 hrs by AlamarBlue assay; type: toxicity, cell-based; conditions: dose 0.5-30 µM, read-out: Activity
Staphylococcus aureus [29] = assay: Potency index, ratio of Vancomycin MIC to test compound MIC for antibacterial activity against Vancomycin-resistant Staphylococcus aureus 1; type: functional
Cell membrane [30] = assay: Induction of cytoplasmic membrane permeabilization in Bacillus subtilis assessed as increase in fluorescence intensity at 10 uM measured for 30 to 40 mins by Propidium iodide staining based fluorescence analysis; type: subcellular; conditions: time 30-40 min
Bacillus subtilis [31] = assay: Antibacterial activity against Bacillus subtilis 168 assessed as concentration that requires for bacterial growth retardation measured for every 30 mins; type: functional
Enterococcus [32] = assay: Bactericidal activity against Vancomycin-resistant Enterococci assessed as log reduction in bacterial colonies at 4XMIC incubated for 24 hrs in broth solution followed by culturing for 24 hrs on agar plate by spot plating method; type: functional; conditions: time 48 hrs

Question: What does the source list for `CCCCCCCCCCNC(=O)C[N+](C)(C)CCCNC(=O)c1ccc(CN[C@@]2(C)C[C@H](O[C@H]3[C@H](Oc4c5cc6cc4Oc4ccc(cc4Cl)[C@@H](O)[C@@H](NC(=O)[C@@H](CC(C)C)NC)C(=O)N[C@@H](CC(N)=O)C(=O)N[C@H]6C(=O)N[C@H]4C(=O)N[C@H](C(=O)N[C@H](C(=O)O)c6cc(O)cc(O)c6-c6cc4ccc6O)[C@H](O)c4ccc(c(Cl)c4)O5)O[C@H](CO)[C@@H](O)[C@@H]3O)O[C@@H](C)[C@H]2O)cc1`?
Answer: Ratio (Enterococcus [1]): 1384; Activity [2]: 0.38 mg/dL; Activity (Staphylococcus aureus [3]): 6 log10CFU/ml; MIC (Staphylococcus aureus [4]): 0.45 µM; Activity (Staphylococcus aureus [5]): 2 log10CFU/ml; Activity [6]: 62.25 U/L; Activity (Staphylococcus aureus [7]): 1.6 log10CFU/ml; MIC (Staphylococcus aureus [8]): 0.9 µM; Activity (Staphylococcus aureus [9]): 3.3 log10CFU/ml; Activity (Enterococcus [10]): inactive; Activity (Staphylococcus aureus [11]): 100%; Activity (Cell membrane [12]): Active; HC50 at 1 h [13]: > 250 µM; Activity (Cell membrane [14]): Active; Activity (Cell membrane [15]): 5%; hemolysis at 1 h, 250 µM [16]: 1%; Activity [17]: Non-Toxic; Activity (Staphylococcus aureus [18]): 2 log10CFU/ml; inhibition (Bacillus subtilis [19]): Active; MIC (Bacillus subtilis [20]): 0.45 µM; MIC (Enterococcus [21]): 0.45 µM; MIC (Staphylococcus aureus [22]): 0.9 µM; Activity [23]: Non-Toxic; Activity [24]: 25%; Ratio (Enterococcus [25]): 1384; Activity (Staphylococcus aureus [26]): 1.9 log10CFU/ml; Activity (Enterococcus [27]): 0.5 log10CFU/ml; viability at 24 h, up to 30 µM [28]: 100%; Ratio (Staphylococcus aureus [29]): 1384; Activity (Cell membrane [30]): Active; EC (Bacillus subtilis [31]): 0.06 µM; Activity (Enterococcus [32]): 5 log10CFU/ml
